Several values for one entry are separate records, joined by “and”; a condition that tells them apart may be missing. Equal entries are not always repeated. Starred links: 1 amine or outer side, 2 acyl side, 3 side chain; linkers in the order of their positions; H or OH if unused. Non-standard residues stand in square brackets, D forms with d. No end group written: not given here. Benzoyl(5-NH,2-NO2) = O=C(c1cc(N[*:1])ccc1[N+](=O)[O-])[*:2]; 2Abz = Nc1ccccc1C(=O)O
Columns and labels:
Type in all cases: biochemical, human
[1] = system: enzymatic (proteolytic) activity in urine from subjects diagnosed with uterine body cancer; experiment: Hydrolysis of the chromogenic substrate in urine from subjects with uterine body cancer (absorbance at 405 nm); parameters: Results of absorbance analysis (rate of hydrolysis of the substrate): unit not given here; conditions: for Results of absorbance analysis (rate of hydrolysis of the substrate): 405 nm, 37° C., 60 minutes, Tris-HCl pH 8.0, triplicate
Method: (§1) The activity of the novel compounds according to the invention was studied in a group of 20 subjects diagnosed with uterine body cancer using the representative compound according to the invention. […] The remaining compounds according to the invention are characterized by the analogous mechanism of action. For this purpose, the representative compound according to the invention, ABZ^1-Pro^2-Arg^3-Thr^4-Ile^5-ANB^6-NH2, was dissolved in dimethyl sulfoxide (at a concentration of 0.5 mg/mL) and then 50 μL of the solution was mixed with 120 μL of a buffer (200 mM Tris-HCl, pH 8.0) and 80 μL of urine from a subject suffering from uterine body cancer. The measurement was performed on a 96-well plate designed for measuring absorbance and each sample was analysed in triplicate at the temperature of 37° C. The duration of the measurement was 60 minutes. During the measurement, the wavelength characteristic for the chromophore (ANB-NH2) being released was monitored at the wavelength 405 nm (range 380-430 nm).
The observed magnitude of increase in absorbance in time is different for each of the examined samples. […] Such a result may be due to the difference in the activity as well as the amount of enzymes responsible for the enzymatic cleavage (proteolysis). […] The result indicates the […] of proteolytic enzymes specific/characteristic of uterine body cancer.

[2] = system: enzymatic (proteolytic) activity in urine from healthy subjects; experiment: Hydrolysis of the chromogenic substrate in urine from healthy subjects (absorbance at 405 nm); conditions: for Results of absorbance analysis (rate of hydrolysis of the substrate): 405 nm, 37° C., 60 minutes, Tris-HCl pH 8.0, triplicate
[3] = system: enzymatic activity in urine from patients with kidney cancer; experiment: Selectivity of the cleavage: urine, kidney cancer; conditions: samples from patients with kidney cancer, mixture of 20 samples
From the text: (§2) Arabic numerals indicate the numbers of given cancer types. The samples tested for each type of cancer were derived from 20 different patients for each of the tested cancers. The results are mean values for given cancer types.
as §1
(§3) Furthermore, the dependence of the cleavage selectivity of the substrate, i.e. the compound according to the invention, on the cancer being examined, was studied. […]

[4] = system: enzymatic activity in urine from patients with lung cancer; experiment: Selectivity of the cleavage: urine, lung cancer; conditions: samples from patients with lung cancer, mixture of 20 samples
From the text: as §2, §1, §3

[5] = system: enzymatic activity in urine from patients with prostate cancer; experiment: Selectivity of the cleavage: urine, prostate cancer; conditions: samples from patients with prostate cancer, mixture of 20 samples
From the text: as §2, §1, §3

[6] = system: enzymatic activity in urine from patients with stomach cancer; experiment: Selectivity of the cleavage: urine, stomach cancer; conditions: samples from patients with stomach cancer, mixture of 20 samples
From the text: as §2, §1, §3

[7] = system: enzymatic activity in urine from patients with pancreas cancer; experiment: Selectivity of the cleavage: urine, pancreas cancer; conditions: samples from patients with pancreas cancer, mixture of 20 samples
From the text: as §2, §1, §3

[8] = system: enzymatic activity in urine from patients with ovary cancer; experiment: Selectivity of the cleavage: urine, ovary cancer; conditions: samples from patients with ovary cancer, mixture of 20 samples
From the text: as §2, §1, §3

[9] = system: enzymatic activity in urine from patients with liver cancer; experiment: Selectivity of the cleavage: urine, liver cancer; conditions: samples from patients with liver cancer, mixture of 20 samples
From the text: as §2, §1, §3

[10] = system: enzymatic activity in samples from patients with bladder cancer; experiment: Selectivity of the cleavage: urine, bladder cancer; conditions: mixture of 20 samples
From the text: as §2, §1, §3

[11] = system: enzymatic activity in urine from a person diagnosed with uterine body cancer; experiment: RP HPLC analysis of substrate cleavage in urine from a person with uterine body cancer; conditions: randomly selected urine from a person diagnosed with uterine body cancer
[12] = system: enzyme(s) in the studied material (urine); experiment: Dependence of the hydrolysis level of the substrate on pH; conditions: FIG. 4
Method: Furthermore, measurements concerning the dependence of the proteolytic activity of the representative compound according to the invention on the reaction pH were performed.

ABZ-Pro-Arg-Thr-Ile-ANB-NH2 ([2Abz]PRTI-{Benzoyl(5-NH,2-NO2)-NH2})
colour intensity of the solution (absorbance) over time ([1]; all urine samples from persons diagnosed with uterine body cancer (T1-T20)): increased with time
Results of absorbance analysis (rate of hydrolysis of the substrate) ([1]; urine sample T1, uterine body cancer): 0.0066 and 0.006 and 0.0065
Results of absorbance analysis (rate of hydrolysis of the substrate) ([1]; urine sample T2, uterine body cancer): 0.052 and 0.042 and 0.051
Results of absorbance analysis (rate of hydrolysis of the substrate) ([1]; urine sample T3, uterine body cancer): 0.0087 and 0.0088 and 0.0086
Results of absorbance analysis (rate of hydrolysis of the substrate) ([1]; urine sample T4, uterine body cancer): 0.0069 and 0.0051 and 0.0067
Results of absorbance analysis (rate of hydrolysis of the substrate) ([1]; urine sample T5, uterine body cancer): 0.044 and 0.038 and 0.042
Results of absorbance analysis (rate of hydrolysis of the substrate) ([1]; urine sample T6, uterine body cancer): 0.037 and 0.022 and 0.028
Results of absorbance analysis (rate of hydrolysis of the substrate) ([1]; urine sample T8, uterine body cancer): 0.014 and 0.022 and 0.015
Results of absorbance analysis (rate of hydrolysis of the substrate) ([1]; urine sample T9, uterine body cancer): 0.0088 and 0.0101 and 0.0092
Results of absorbance analysis (rate of hydrolysis of the substrate) ([1]; urine sample T10, uterine body cancer): 0.009 and 0.0093 and 0.0085
Results of absorbance analysis (rate of hydrolysis of the substrate) ([1]; urine sample T11, uterine body cancer): 0.0123 and 0.0112 and 0.0145
Results of absorbance analysis (rate of hydrolysis of the substrate) ([1]; urine sample T12, uterine body cancer): 0.0216 and 0.021 and 0.0199
Results of absorbance analysis (rate of hydrolysis of the substrate) ([1]; urine sample T13, uterine body cancer): 0.0045 and 0.0052 and 0.0048
Results of absorbance analysis (rate of hydrolysis of the substrate) ([1]; urine sample T14, uterine body cancer): 0.005 and 0.0061 and 0.0058
Results of absorbance analysis (rate of hydrolysis of the substrate) ([1]; urine sample T15, uterine body cancer): 0.0017 and 0.0015 and 0.0021
Results of absorbance analysis (rate of hydrolysis of the substrate) ([1]; urine sample T16, uterine body cancer): 0.0079 and 0.0084 and 0.0072
Results of absorbance analysis (rate of hydrolysis of the substrate) ([1]; urine sample T18, uterine body cancer): 0.0073 and 0.0068 and 0.0075
Results of absorbance analysis (rate of hydrolysis of the substrate) ([1]; urine sample T19, uterine body cancer): 0.055 and 0.051 and 0.048
Results of absorbance analysis (rate of hydrolysis of the substrate) ([1]; urine sample T20, uterine body cancer): 0.0077 and 0.0075 and 0.0081
increase in absorbance within the diagnostic range ([2]; 20 urine samples from healthy subjects): no increase in absorbance
Results of absorbance analysis (rate of hydrolysis of the substrate) ([2]; urine sample 21, healthy subject): 0.000000
Results of absorbance analysis (rate of hydrolysis of the substrate) ([2]; urine sample 22, healthy subject): 0.000000
Results of absorbance analysis (rate of hydrolysis of the substrate) ([2]; urine sample 23, healthy subject): 0.000000
Results of absorbance analysis (rate of hydrolysis of the substrate) ([2]; urine sample 24, healthy subject): 0.000000
Results of absorbance analysis (rate of hydrolysis of the substrate) ([2]; urine sample 25, healthy subject): 0.000000
Results of absorbance analysis (rate of hydrolysis of the substrate) ([2]; urine sample 26, healthy subject): 0.000000
Results of absorbance analysis (rate of hydrolysis of the substrate) ([2]; urine sample 27, healthy subject): 0.000000
Results of absorbance analysis (rate of hydrolysis of the substrate) ([2]; urine sample 28, healthy subject): 0.000000
Results of absorbance analysis (rate of hydrolysis of the substrate) ([2]; urine sample 29, healthy subject): 0.000000
Results of absorbance analysis (rate of hydrolysis of the substrate) ([2]; urine sample 30, healthy subject): 0.000000
Results of absorbance analysis (rate of hydrolysis of the substrate) ([2]; urine sample 31, healthy subject): 0.000000
Results of absorbance analysis (rate of hydrolysis of the substrate) ([2]; urine sample 32, healthy subject): 0.000000
Results of absorbance analysis (rate of hydrolysis of the substrate) ([2]; urine sample 33, healthy subject): 0.000000
Results of absorbance analysis (rate of hydrolysis of the substrate) ([2]; urine sample 34, healthy subject): 0.000000
Results of absorbance analysis (rate of hydrolysis of the substrate) ([2]; urine sample 35, healthy subject): 0.000000
Results of absorbance analysis (rate of hydrolysis of the substrate) ([2]; urine sample 36, healthy subject): 0.000000
Results of absorbance analysis (rate of hydrolysis of the substrate) ([2]; urine sample 37, healthy subject): 0.000000
Results of absorbance analysis (rate of hydrolysis of the substrate) ([2]; urine sample 38, healthy subject): 0.000000
Results of absorbance analysis (rate of hydrolysis of the substrate) ([2]; urine sample 39, healthy subject): 0.000000
Results of absorbance analysis (rate of hydrolysis of the substrate) ([2]; urine sample 40, healthy subject): 0.000000
cleavage of the substrate / increase in absorbance [3]: is not subject to cleavage
cleavage of the substrate / increase in absorbance [4]: is not subject to cleavage
cleavage of the substrate / increase in absorbance [5]: is not subject to cleavage
cleavage of the substrate / increase in absorbance [6]: is not subject to cleavage
cleavage of the substrate / increase in absorbance [7]: is not subject to cleavage
cleavage of the substrate / increase in absorbance [8]: is not subject to cleavage
cleavage of the substrate / increase in absorbance [9]: is not subject to cleavage
cleavage of the substrate / increase in absorbance [10]: is not subject to cleavage
cleavage products of the substrate (RP HPLC) [11]: cleaves into the peptide fragment ABZ-Pro-Arg-Thr-Ile-OH and the chromophore group of the compound (ANB-NH2)
dependence of the hydrolysis of the substrate on the reaction pH [12]: maximum activity at alkaline pH
